Laboratory results: article PMC9343791, “Evaluation of Herb–Drug Interaction Between Danshen and Rivaroxaban in Rat and Human Liver Microsomes” (Frontiers in Pharmacology, 2022)

How the values were obtained:
CYP3A2 = molecular target: T1, CYP3A2 (Rattus norvegicus, UniProt P05183); experiment: midazolam probe-substrate inhibition in pooled rat liver microsomes, LC-MS/MS; type: biochemical
T1 sequence (P05183 1-504): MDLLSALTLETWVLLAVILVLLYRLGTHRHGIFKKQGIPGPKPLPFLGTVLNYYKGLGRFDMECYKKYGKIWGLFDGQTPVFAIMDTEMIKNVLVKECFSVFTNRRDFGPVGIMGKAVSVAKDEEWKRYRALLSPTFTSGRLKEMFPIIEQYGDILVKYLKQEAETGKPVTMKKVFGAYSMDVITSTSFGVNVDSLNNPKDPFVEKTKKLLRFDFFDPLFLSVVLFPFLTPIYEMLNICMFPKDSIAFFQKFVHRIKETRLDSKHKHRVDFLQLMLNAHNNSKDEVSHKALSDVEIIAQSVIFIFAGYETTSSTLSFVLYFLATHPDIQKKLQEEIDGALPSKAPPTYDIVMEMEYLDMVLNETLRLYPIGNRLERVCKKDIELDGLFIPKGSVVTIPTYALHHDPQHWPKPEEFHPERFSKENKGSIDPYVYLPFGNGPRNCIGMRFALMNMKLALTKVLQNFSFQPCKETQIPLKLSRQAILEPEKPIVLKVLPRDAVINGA

CYP2J3 = molecular target: T2, CYP2J3 (Rattus norvegicus, UniProt P51590); experiment: astemizole probe-substrate inhibition in pooled rat liver microsomes, LC-MS/MS; type: biochemical
T2 sequence (P51590 1-502): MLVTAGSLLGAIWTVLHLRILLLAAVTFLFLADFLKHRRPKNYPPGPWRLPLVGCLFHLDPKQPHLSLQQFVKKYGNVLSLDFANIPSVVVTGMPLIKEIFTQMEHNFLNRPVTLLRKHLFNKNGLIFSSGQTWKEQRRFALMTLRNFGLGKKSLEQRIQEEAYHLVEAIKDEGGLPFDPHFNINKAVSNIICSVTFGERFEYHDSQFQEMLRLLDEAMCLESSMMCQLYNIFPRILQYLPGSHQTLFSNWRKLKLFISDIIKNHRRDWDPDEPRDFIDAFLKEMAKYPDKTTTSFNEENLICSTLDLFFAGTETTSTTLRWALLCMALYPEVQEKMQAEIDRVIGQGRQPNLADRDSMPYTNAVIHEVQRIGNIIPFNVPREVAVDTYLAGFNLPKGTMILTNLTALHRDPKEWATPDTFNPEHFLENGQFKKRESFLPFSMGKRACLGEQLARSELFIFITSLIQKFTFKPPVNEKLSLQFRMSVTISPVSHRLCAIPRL

Cc1cccc2c3c(ccc12)C1=C(C(=O)C3=O)[C@@H](C)CO1 [dihydrotanshinone I]
IC50 (CYP3A2): 13.8 µM
IC50 (CYP2J3): 6.39 µM
